# From the supplement of paper PMC11061612
# How the values were obtained:
# AZD7648 = compound: Cc1cc2ncnn2cc1Nc1ncc2c(n1)n(C1CCOCC1)c(=O)n2C [AZD7648]; details: max 10 µM
# How it was run: (§1)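 Cancer cell lines were seeded into 1536-well plates in 7.5 μl medium (DMEM/F12 or RPMI, 10% FBS), held 24 hours at 37°C and 5% CO2, and dosed for 72 hours with final DMSO typically 0.2%. Luminescence from CellTiter-Glo 2.0, scaled between blank-well and DMSO-well means, served as viability. The single-agent IC50 was obtained from dose-response fits with a non-linear mixed effects model, each fit being a two-parameter logistic curve.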
# 5-Fluorouracil = compound: O=c1[nH]cc(F)c(=O)[nH]1 [5-Fluorouracil]; details: max 20 µM
# How it was run: as §1
# AZD1390 = compound: CC(C)n1c(=O)n(C)c2cnc3cc(F)c(-c4ccc(OCCCN5CCCCC5)nc4)cc3c21 [AZD1390]; details: max 0.3 µM
# How it was run: as §1
# Dasatinib = compound: CC1=C(C(=CC=C1)Cl)NC(=O)C2=CN=C(S2)NC3=CC(=NC(=N3)C)N4CCN(CC4)CCO [Dasatinib]; details: max 2 µM
# How it was run: as §1
# AZD5153 = compound: COc1nnc2ccc(N3CCC(c4ccc(OCCN5CCN(C)C(=O)[C@H]5C)cc4)CC3)nn12 [AZD5153]; details: max 1 µM
# How it was run: as §1
# Prexasertib = compound: COc1cccc(OCCCN)c1-c1cc(Nc2cnc(C#N)cn2)n[nH]1 [Prexasertib]; details: max 1 µM
# How it was run: as §1
# AZD0156 = compound: CN(C)CCCOc1ccc(-c2ccc3ncc4c(c3c2)n(C2CCOCC2)c(=O)n4C)cn1 [AZD0156]; details: max 3 µM
# How it was run: as §1
# Gefitinib = compound: COc1cc2ncnc(Nc3ccc(F)c(Cl)c3)c2cc1OCCCN1CCOCC1 [Gefitinib]; details: max 10 µM
# How it was run: as §1
# AZD2811 = compound: CCN(CCO)CCCOc1ccc2c(Nc3cc(CC(=O)Nc4cccc(F)c4)[nH]n3)ncnc2c1 [AZD2811]; details: max 1 µM
# How it was run: as §1
# Selumetinib = compound: Cn1cnc2c(F)c(Nc3ccc(Br)cc3Cl)c(C(=O)NOCCO)cc21 [Selumetinib]; details: max 10 µM
# How it was run: as §1
# Lapatinib = compound: CS(=O)(=O)CCNCc1ccc(-c2ccc3ncnc(Nc4ccc(OCc5cccc(F)c5)c(Cl)c4)c3c2)o1 [Lapatinib]; details: max 10 µM
# How it was run: as §1
# Trametinib = compound: CC(=O)Nc1cccc(-n2c(=O)n(C3CC3)c(=O)c3c(Nc4ccc(I)cc4F)n(C)c(=O)c(C)c32)c1 [Trametinib]; details: max 1 µM
# How it was run: as §1
# Carboplatin = compound: C1CC(C1)(C(=O)[O-])C(=O)[O-].N.N.[Pt+2] [Carboplatin]; details: max 10 µM
# How it was run: as §1
# AZD1775 = compound: C=CCn1c(=O)c2cnc(Nc3ccc(N4CCN(C)CC4)cc3)nc2n1-c1cccc(C(C)(C)O)n1 [AZD1775]; details: max 3 µM
# How it was run: as §1
# Gemcitabine = compound: Nc1ccn([C@@H]2O[C@H](CO)[C@@H](O)C2(F)F)c(=O)n1 [Gemcitabine]; details: max 0.3 µM
# How it was run: as §1
# AZD4320 = compound: CN(CC[C@H](CSC1=CC=CC=C1)NC2=C(C=C(C=C2)S(=O)(=O)NC(=O)C3=CC=C(C=C3)N4CCC(CC4)[C@H](C5=CC=CC=C5C6=CC=C(C=C6)Cl)O)S(=O)(=O)C(F)(F)F)CCO [AZD4320]; details: max 1 µM
# How it was run: as §1
# Doxorubicin = compound: COc1cccc2c1C(=O)c1c(O)c3c(c(O)c1C2=O)C[C@@](O)(C(=O)CO)C[C@@H]3O[C@H]1C[C@H](N)[C@H](O)[C@H](C)O1 [Doxorubicin]; details: max 1 µM
# How it was run: as §1
# AZD5363 = compound: C1CN(CCC1(C(=O)N[C@@H](CCO)C2=CC=C(C=C2)Cl)N)C3=NC=NC4=C3C=CN4 [AZD5363]; details: max 10 µM
# How it was run: as §1
# Alisertib = compound: COc1cc(Nc2ncc3c(n2)-c2ccc(Cl)cc2C(c2c(F)cccc2OC)=NC3)ccc1C(=O)O [Alisertib]; details: max 10 µM
# How it was run: as §1
# Crizotinib = compound: C[C@@H](Oc1cc(-c2cnn(C3CCNCC3)c2)cnc1N)c1c(Cl)ccc(F)c1Cl [Crizotinib]; details: max 10 µM
# How it was run: as §1
# AZD8186 = compound: C[C@@H](Nc1cc(F)cc(F)c1)c1cc(C(=O)N(C)C)cc2c(=O)cc(N3CCOCC3)oc12 [AZD8186]; details: max 10 µM
# How it was run: as §1
# Olaparib = compound: O=C(c1cc(Cc2n[nH]c(=O)c3ccccc23)ccc1F)N1CCN(C(=O)C2CC2)CC1 [Olaparib]; details: max 10 µM
# How it was run: as §1
# SN-38 = compound: CCc1c2c(nc3ccc(O)cc13)-c1cc3c(c(=O)n1C2)COC(=O)[C@]3(O)CC [SN-38]; details: max 0.3 µM
# How it was run: as §1
# MK-2206 = compound: NC1(c2ccc(-c3nc4ccn5c(=O)[nH]nc5c4cc3-c3ccccc3)cc2)CCC1 [MK-2206]; details: max 10 µM
# How it was run: as §1
# SG3199 = compound: CC1=CN2[C@@H](C1)C=NC3=CC(=C(C=C3C2=O)OC)OCCCCCOC4=C(C=C5C(=C4)N=C[C@@H]6CC(=CN6C5=O)C)OC [SG3199]; details: max 0.001 µM
# How it was run: as §1
# AZD5991 = compound: Cc1c2c(nn1C)CSCc1cc(n(C)n1)CSc1cc(c3ccccc3c1)OCCCc1c(C(=O)O)n(C)c3c-2c(Cl)ccc13 [AZD5991]; details: max 1 µM
# How it was run: as §1
# Savolitinib = compound: C[C@@H](c1ccc2nccn2c1)n1nnc2ncc(-c3cnn(C)c3)nc21 [Savolitinib]; details: max 1 µM
# How it was run: as §1
# Etoposide = compound: COc1cc([C@@H]2c3cc4c(cc3[C@@H](O[C@@H]3O[C@@H]5CO[C@@H](C)O[C@H]5[C@H](O)[C@H]3O)[C@H]3COC(=O)[C@H]23)OCO4)cc(OC)c1O [Etoposide]; details: max 10 µM
# How it was run: as §1
# Palbociclib = compound: CC(=O)c1c(C)c2cnc(Nc3ccc(N4CCNCC4)cn3)nc2n(C2CCCC2)c1=O [Palbociclib]; details: max 10 µM
# How it was run: as §1
# SRA737 = compound: N#Cc1cnc(Nc2cc(NC[C@H]3CNCCO3)c(C(F)(F)F)cn2)cn1 [SRA737]; details: max 10 µM
# How it was run: as §1
# Venetoclax = compound: CC1(C)CCC(CN2CCN(c3ccc(C(=O)NS(=O)(=O)c4ccc(NCC5CCOCC5)c([N+](=O)[O-])c4)c(Oc4cnc5[nH]ccc5c4)c3)CC2)=C(c2ccc(Cl)cc2)C1 [Venetoclax]; details: max 1 µM
# How it was run: as §1
# Taselisib = compound: Cc1nc(-c2cn3c(n2)-c2ccc(-c4cnn(C(C)(C)C(N)=O)c4)cc2OCC3)n(C(C)C)n1 [Taselisib]; details: max 10 µM
# How it was run: as §1
# [1] = compound: O=C(Nc1ccc2[nH]nc(-c3ccncc3)c2c1)[C@@H]1CCN(CC(=O)N2CCN(c3ccc(-c4ncccn4)cc3)CC2)C1; details: max 5 µM
# How it was run: as §1
# AZD6738 = compound: C[C@@H]1COCCN1C2=NC(=NC(=C2)C3(CC3)[S@](=N)(=O)C)C4=C5C=CNC5=NC=C4 [AZD6738]; details: max 10 µM
# How it was run: as §1
# Paclitaxel = compound: CC(=O)O[C@H]1C(=O)[C@@]2(C)[C@H]([C@H](OC(=O)c3ccccc3)[C@]3(O)C[C@H](OC(=O)[C@H](O)[C@@H](NC(=O)c4ccccc4)c4ccccc4)C(C)=C1C3(C)C)[C@]1(OC(C)=O)CO[C@@H]1C[C@@H]2O [Paclitaxel]; details: max 3 µM
# How it was run: as §1
Cell Line,"IC50, cell viability 72 h (AZD7648)","IC50, cell viability 72 h (5-Fluorouracil)","IC50, cell viability 72 h (AZD1390)","IC50, cell viability 72 h (Dasatinib)","IC50, cell viability 72 h (AZD5153)","IC50, cell viability 72 h (Prexasertib)","IC50, cell viability 72 h (AZD0156)","IC50, cell viability 72 h (Gefitinib)","IC50, cell viability 72 h (AZD2811)","IC50, cell viability 72 h (Selumetinib)","IC50, cell viability 72 h (Lapatinib)","IC50, cell viability 72 h (Trametinib)","IC50, cell viability 72 h (Carboplatin)","IC50, cell viability 72 h (AZD1775)","IC50, cell viability 72 h (Gemcitabine)","IC50, cell viability 72 h (AZD4320)","IC50, cell viability 72 h (Doxorubicin)","IC50, cell viability 72 h (AZD5363)","IC50, cell viability 72 h (Alisertib)","IC50, cell viability 72 h (Crizotinib)","IC50, cell viability 72 h (AZD8186)","IC50, cell viability 72 h (Olaparib)","IC50, cell viability 72 h (SN-38)","IC50, cell viability 72 h (MK-2206)","IC50, cell viability 72 h (SG3199)","IC50, cell viability 72 h (AZD5991)","IC50, cell viability 72 h (Savolitinib)","IC50, cell viability 72 h (Etoposide)","IC50, cell viability 72 h (Palbociclib)","IC50, cell viability 72 h (SRA737)","IC50, cell viability 72 h (Venetoclax)","IC50, cell viability 72 h (Taselisib)","IC50, cell viability 72 h [1]","IC50, cell viability 72 h (AZD6738)","IC50, cell viability 72 h (Paclitaxel)"
TGW (Neuroblastoma),> 10 µM,> 20 µM,> 0.3 µM,> 2 µM,> 1 µM,0.0277 µM,> 3 µM,> 10 µM,> 1 µM,> 10 µM,> 10 µM,> 1 µM,> 10 µM,0.571 µM,0.159 µM,0.127 µM,0.521 µM,> 10 µM,0.162 µM,6.84 µM,> 10 µM,> 10 µM,0.0505 µM,> 10 µM,> 0.001 µM,> 1 µM,> 1 µM,> 10 µM,> 10 µM,> 10 µM,> 1 µM,> 10 µM,> 5 µM,7.37 µM,0.108 µM
TK10 (Kidney Carcinoma),> 10 µM,> 20 µM,> 0.3 µM,0.437 µM,0.903 µM,0.159 µM,> 3 µM,9.99 µM,> 1 µM,> 10 µM,8.3 µM,> 1 µM,> 10 µM,2.87 µM,> 0.3 µM,> 1 µM,> 1 µM,> 10 µM,> 10 µM,> 10 µM,> 10 µM,> 10 µM,> 0.3 µM,> 10 µM,> 0.001 µM,> 1 µM,> 1 µM,> 10 µM,> 10 µM,> 10 µM,> 1 µM,5.34 µM,> 5 µM,> 10 µM,0.715 µM
UACC-62 (Melanoma),> 10 µM,> 20 µM,> 0.3 µM,> 2 µM,> 1 µM,0.136 µM,> 3 µM,> 10 µM,> 1 µM,0.284 µM,> 10 µM,0.00406 µM,> 10 µM,> 3 µM,> 0.3 µM,> 1 µM,0.373 µM,> 10 µM,> 10 µM,> 10 µM,3.99 µM,> 10 µM,0.0156 µM,> 10 µM,> 0.001 µM,0.282 µM,> 1 µM,> 10 µM,> 10 µM,> 10 µM,> 1 µM,4.61 µM,0.0846 µM,> 10 µM,0.598 µM
YH-13 (Glioblastoma),> 10 µM,> 20 µM,> 0.3 µM,0.837 µM,0.534 µM,0.0763 µM,> 3 µM,> 10 µM,> 1 µM,> 10 µM,> 10 µM,> 1 µM,> 10 µM,> 3 µM,0.114 µM,> 1 µM,> 1 µM,> 10 µM,> 10 µM,> 10 µM,2.85 µM,> 10 µM,0.159 µM,> 10 µM,> 0.001 µM,> 1 µM,> 1 µM,> 10 µM,> 10 µM,> 10 µM,> 1 µM,2.99 µM,> 5 µM,> 10 µM,0.00382 µM
